Measured values reported in paper PMC12504763, “Antiproliferation, 3D-multicellular spheroid and VEGFR-2 inhibitory properties of spiroindolin-2-ones with phosphonate function” (Scientific Reports, 2025).
Values joined by “and” are separate entries in the source; they are usually repeats but may differ in a detail not shown here. Identical values can stand only once. Like-named read-outs stand apart in the source and are kept apart here.

Columns and labels:
[1] = test system: PaCa2 (pancreatic) cancer cell line; parameters: method as in Reference 30; conditions: standard drug sunitinib; ref Reference 30; cited from earlier work
[2] = test system: CAM blood vessel network; assay: Chick chorioallantoic membrane (CAM) anti-angiogenic assay; format: in vivo, chicken; conditions: 20 μL of 660 μM, 3 days; for Diameter of blood vessel (μm ± SEM): CAM test, control 459.7 ± 13.8
Experimental: CAM assay is an established xenograft technique for investigating the angiogenic effect due to the high resemblance of the human vascularized epithelium basement membrane with that of the chorioallantoic layer containing mainly type IV collagen[84]–[86].
Fig. 10 Images of light microscopy for anti-angiogenic evaluation of the tested compounds using CAM assay. […] The glass slide was placed on the surface of the CAM blood vessel network and left in an incubator at 37 °C for 3 days. The CAM blood vessel network was carefully cut and imaged under a light microscope (40 × magnification).
Fertilized white chicken eggs were incubated in a 37 °C incubator with constant humidity. On day 8, a small squared window was opened allowing the detachment of the growing CAM and shell. The opening was covered with an elastic bandage. […] The CAM was then sealed with a bandage and placed back in the incubator. CAMs were examined daily until day 12 (3 days), the vascularized membranes were then cut around the glass slide and fixed in 5% formalin. Images were taken with an Evos microscope at 40x and 100x magnification^9. Main blood vessel in the microscopic images of controls and samples were quantified by imageJ and analyzed for significant differences (n = 4).

[3] = target: T1, COX-1 (Ovis aries, UniProt P05979); assay: biochemical; conditions: 3 replicates, read-out: % Inhibition of COX-1 ± SEM
T1 construct: purchased BioVision incorporated USA K548–100
T1 sequence (P05979 25-600): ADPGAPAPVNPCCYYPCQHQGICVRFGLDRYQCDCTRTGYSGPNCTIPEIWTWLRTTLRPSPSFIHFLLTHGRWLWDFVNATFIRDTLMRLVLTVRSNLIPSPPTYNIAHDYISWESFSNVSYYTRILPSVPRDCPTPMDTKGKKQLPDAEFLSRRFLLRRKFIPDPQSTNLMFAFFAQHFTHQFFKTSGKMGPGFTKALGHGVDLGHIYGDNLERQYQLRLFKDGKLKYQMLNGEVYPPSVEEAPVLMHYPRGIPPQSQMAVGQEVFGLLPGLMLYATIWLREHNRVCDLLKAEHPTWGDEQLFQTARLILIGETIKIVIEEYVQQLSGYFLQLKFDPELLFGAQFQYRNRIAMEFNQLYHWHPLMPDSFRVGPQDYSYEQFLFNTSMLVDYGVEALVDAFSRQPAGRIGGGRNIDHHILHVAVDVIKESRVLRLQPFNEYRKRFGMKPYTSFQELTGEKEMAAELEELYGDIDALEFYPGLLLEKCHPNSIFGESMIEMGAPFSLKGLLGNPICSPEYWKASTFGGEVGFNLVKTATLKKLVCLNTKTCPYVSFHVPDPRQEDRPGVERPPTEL

[4] = test system: TNF-α; assay: TNF-α inhibitory properties (ELISA), MCF7 cell lysate; format: cell-based, human; conditions: at 10 μM; for TNF-α pg/mL (± SEM) MCF7: control 83.26 ± 1.1
[5] = test system: TNF-α; assay: TNF-α inhibitory properties (ELISA), PaCa2 cell lysate; format: cell-based, human; conditions: at 10 μM; for TNF-α pg/mL (± SEM) PaCa2: control 111.8 ± 2.0
[6] = target: T2, VEGFR-2 (Homo sapiens, UniProt P35968); assay: cell-based; format: cell-based; conditions: for inhibition at 10 µM: HCT-116, HCT116; for VEGFR-2 pg/mL ± SEM HCT116: at 10 μM, control 317.80 ± 3.5
T2 construct: endogenous in cells; host or cells: HCT116, PaCa2, MCF7 (human cancer cell lines, ATCC origin)

[7] = target: T3, COX-2 (Homo sapiens, UniProt P35354); assay: biochemical; conditions: for inhibition at 10 µM: 3 replicates, read-out: % Inhibition of COX-2 ± SEM; for SI (selectivity index, COX-2/COX-1): at 10 μM
T3 construct: purchased BioVision incorporated USA K548–100
T3 sequence (P35354 18-604): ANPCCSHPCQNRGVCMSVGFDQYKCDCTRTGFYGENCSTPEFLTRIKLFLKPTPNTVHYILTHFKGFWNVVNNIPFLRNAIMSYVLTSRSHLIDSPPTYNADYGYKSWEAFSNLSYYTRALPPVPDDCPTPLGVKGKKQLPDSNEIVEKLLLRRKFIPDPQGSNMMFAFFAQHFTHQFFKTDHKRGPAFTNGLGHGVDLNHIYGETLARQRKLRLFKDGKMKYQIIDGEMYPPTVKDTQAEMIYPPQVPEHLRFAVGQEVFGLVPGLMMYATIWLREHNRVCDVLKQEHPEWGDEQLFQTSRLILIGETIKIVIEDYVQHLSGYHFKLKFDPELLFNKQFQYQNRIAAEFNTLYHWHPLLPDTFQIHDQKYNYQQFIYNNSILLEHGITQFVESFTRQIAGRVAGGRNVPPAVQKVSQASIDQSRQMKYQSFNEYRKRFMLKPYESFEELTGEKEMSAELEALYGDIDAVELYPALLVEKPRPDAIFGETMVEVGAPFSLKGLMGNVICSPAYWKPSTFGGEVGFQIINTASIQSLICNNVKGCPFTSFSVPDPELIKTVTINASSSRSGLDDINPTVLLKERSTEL

[8] = target: T2, VEGFR-2; assay: cell-based; format: cell-based; conditions: for inhibition at 10 µM: MCF7; for VEGFR-2 pg/mL ± SEM MCF7: at 10 μM, control 258.70 ± 2.3
[9] = test system: PaCa2 (pancreatic) cancer cell line; assay: 2D-monolayer antiproliferation (MTT) against PaCa2; format: cell-based, human; conditions: for 1/(observed property): 1/observed IC50 (μM), PaCa2; for IC50: Homo sapiens, PaCa-2, MTT, 72 h incubation, PaCa2 pancreatic, read-out: IC50, μM ± SEM PaCa2; for SI (selectivity index) PaCa2: IC50 of RPE1 normal cell/IC50 of PaCa2
[10] = target: T2, VEGFR-2; assay: cell-based; format: cell-based; conditions: for inhibition at 10 µM: PaCa-2, PaCa2; for VEGFR-2 pg/mL ± SEM PaCa2: at 10 μM, control 326.80 ± 1.9
[11] = test system: RPE1 (normal human immortalized retinal pigment epithelial cell line); assay: cells; format: cell-based; conditions: Homo sapiens, RPE-1; MTT, normal RPE1 cell; read-out: IC50, μM ± SEM RPE1
[12] = test system: HCT116 (colon) cancer cell line; assay: 2D-monolayer antiproliferation (MTT) against HCT116; format: cell-based, human; conditions: for IC50: Homo sapiens, HCT-116; for SI (selectivity index) HCT116: IC50 of RPE1 normal cell/IC50 of HCT116
[13] = test system: MCF7 (breast) cancer cell line; assay: 2D-monolayer antiproliferation (MTT) against MCF7; format: cell-based, human; conditions: for IC50: Homo sapiens, MTT, 72 h incubation, MCF7 breast, read-out: IC50, μM ± SEM MCF7; for SI (selectivity index) MCF7: IC50 of RPE1 normal cell/IC50 of MCF7
[14] = test system: A549 (lung) cancer cell line; assay: 2D-monolayer antiproliferation (MTT) against A549; format: cell-based, human; conditions: for IC50: Homo sapiens, MTT, 72 h incubation, A549 lung, read-out: IC50, μM ± SEM A549; for SI (selectivity index) A549: IC50 of RPE1 normal cell/IC50 of A549
[15] = test system: TNF-α; assay: TNF-α inhibitory properties (ELISA), HCT116 cell lysate; format: cell-based, human; conditions: at 10 μM; for TNF-α pg/mL (± SEM) HCT116: control 95.74 ± 0.5
[16] = test system: HCT116 3D-spheroid; conditions: HCT116 3D-spheroid at 50 μM, relative to control
[17] = test system: A549 (lung) cancer cell line; parameters: method as in Reference 45; conditions: standard drug doxorubicin; ref Reference 45; cited from earlier work
[18] = MTT, 72 h incubation, HCT116 colon, read-out: IC50, μM ± SEM HCT116
[19] = log of observed IC50 (μM), HCT116, read-out: Log(observed property) (converted)

T2 sequence (P35968 20-1356): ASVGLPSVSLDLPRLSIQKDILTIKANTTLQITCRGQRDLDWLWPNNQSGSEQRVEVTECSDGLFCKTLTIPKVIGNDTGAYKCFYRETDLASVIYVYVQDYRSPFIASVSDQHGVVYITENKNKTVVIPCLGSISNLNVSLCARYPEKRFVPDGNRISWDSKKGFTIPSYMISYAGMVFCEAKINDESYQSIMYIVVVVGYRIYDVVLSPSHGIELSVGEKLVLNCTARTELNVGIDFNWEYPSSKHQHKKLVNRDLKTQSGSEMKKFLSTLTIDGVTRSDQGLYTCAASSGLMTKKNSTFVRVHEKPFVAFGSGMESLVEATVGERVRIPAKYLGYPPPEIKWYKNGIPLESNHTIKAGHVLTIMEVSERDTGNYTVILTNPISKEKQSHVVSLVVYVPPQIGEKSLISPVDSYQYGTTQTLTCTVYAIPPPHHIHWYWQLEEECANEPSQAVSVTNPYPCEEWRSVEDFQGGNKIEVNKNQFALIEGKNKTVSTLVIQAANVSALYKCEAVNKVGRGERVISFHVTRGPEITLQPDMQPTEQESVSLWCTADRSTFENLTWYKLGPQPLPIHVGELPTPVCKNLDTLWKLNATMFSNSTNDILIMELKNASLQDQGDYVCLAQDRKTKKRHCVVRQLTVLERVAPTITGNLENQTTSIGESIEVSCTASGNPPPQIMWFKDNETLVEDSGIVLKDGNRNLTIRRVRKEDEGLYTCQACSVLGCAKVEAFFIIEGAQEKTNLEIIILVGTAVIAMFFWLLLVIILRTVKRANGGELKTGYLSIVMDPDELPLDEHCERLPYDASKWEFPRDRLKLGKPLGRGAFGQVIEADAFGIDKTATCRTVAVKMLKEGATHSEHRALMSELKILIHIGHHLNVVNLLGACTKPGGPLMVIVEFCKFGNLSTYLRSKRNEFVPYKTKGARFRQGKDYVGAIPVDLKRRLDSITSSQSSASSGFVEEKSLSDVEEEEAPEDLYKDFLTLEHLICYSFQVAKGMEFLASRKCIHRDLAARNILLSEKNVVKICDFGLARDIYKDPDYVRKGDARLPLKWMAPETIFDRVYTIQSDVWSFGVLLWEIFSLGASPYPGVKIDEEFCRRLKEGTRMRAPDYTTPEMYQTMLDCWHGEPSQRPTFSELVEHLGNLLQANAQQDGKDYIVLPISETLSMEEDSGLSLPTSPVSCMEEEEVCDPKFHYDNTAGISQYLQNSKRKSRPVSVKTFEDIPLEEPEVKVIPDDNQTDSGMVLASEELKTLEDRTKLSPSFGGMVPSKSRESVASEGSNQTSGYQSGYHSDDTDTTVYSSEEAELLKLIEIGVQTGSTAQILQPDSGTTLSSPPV

Row | SMILES | Diameter of blood vessel (μm ± SEM) [2] | inhibition at 10 µM [3] | TNF-α % inhibition MCF7 [4] | TNF-α pg/mL (± SEM) MCF7 [4] | TNF-α pg/mL (± SEM) PaCa2 [5] | inhibition at 10 µM [6] | VEGFR-2 pg/mL ± SEM HCT116 [6] | inhibition at 10 µM [7] | inhibition at 10 µM [8] | VEGFR-2 pg/mL ± SEM MCF7 [8] | 1/(observed property) [9] | IC50 [9] | SI (selectivity index) PaCa2 [9] | inhibition at 10 µM [10] | VEGFR-2 pg/mL ± SEM PaCa2 [10] | IC50 [11] | IC50 [12, 18] | IC50 [12, 19] | SI (selectivity index) HCT116 [12] | IC50 [13] | other results
1 | CCN(CC)CCNC(=O)c1c(C)[nH]c(/C=C2\C(=O)Nc3ccc(F)cc32)c1C [Sunitinib, reference compound] | 52.3 ± 1.7 μm |  |  |  |  |  |  |  |  |  |  |  |  |  |  |  |  |  |  |  | IC50 [1]: 16.9 µM; % Inhibition of the blood vessels in CAM test [2]: 88.6%
2 | CCOP(=O)(OCC)N1C/C(=C\c2ccc(OC)cc2)C(=O)C2(C1)C(c1ccc(OC)cc1)CN(C)C21C(=O)Nc2ccccc21 (centres unmarked) [Compound 17p, Diethyl (E)-[5′′-(4-methoxybenzylidene)-4′-(4-methoxyphenyl)-1′-methyl-2,4′′-dioxodispiro[indoline-3,2′-pyrrolidine-3′,3′′-piperidin]-1′′-yl]phosphonate] | 79.3 ± 3.3 μm | 51.1 ± 2.7% | 65.7% | 28.56 ± 2.9 pg/mL | 25.8 ± 1.8 pg/mL | 90% | 31.80 ± 0.8 pg/mL | 53.5 ± 2.1% | 81.3% | 48.30 ± 0.4 pg/mL | 0.1367 | 7.32 ± 0.226 µM | 1.9 | 93.3% | 21.76 ± 0.4 pg/mL | 14.2 ± 0.638 µM | 5.51 ± 0.138 µM | 5.51 µM | 2.6 | 5.43 ± 0.14 µM | SI (selectivity index, COX-2/COX-1) [7]: 1.10; SI (selectivity index) MCF7 [13]: 2.6; IC50 [14]: 13 ± 0.284 µM; SI (selectivity index) A549 [14]: 1.1; TNF-α pg/mL (± SEM) HCT116 [15]: 26.21 ± 1.3 pg/mL; %CT (± SEM), percentage cytotoxicity [16]: 68.3% and 68.3 ± 0.6%
3 | CCOP(=O)(OCC)N1C/C(=C\c2ccc(Cl)cc2)C(=O)C2(C1)C(c1ccc(Cl)cc1)CN(C)C21C(=O)Nc2ccc(C)cc21 (centres unmarked) [Compound 17k, Diethyl (E)-(5′′-(4-chlorobenzylidene)-4′-(4-chlorophenyl)-1′,5-dimethyl-2,4′′-dioxodispiro[indoline-3,2′-pyrrolidine-3′,3′′-piperidin]-1′′-yl)phosphonate] |  | 57.7 ± 1% | 72.6% | 22.85 ± 1.8 pg/mL | 24.3 ± 1.4 pg/mL | 78.7% | 67.80 ± 1.3 pg/mL | 55 ± 1.6% | 66.6% | 86.40 ± 0.5 pg/mL | 0.1502 | 6.66 ± 0.095 µM | 1.2 | 76.6% | 76.40 ± 0.9 pg/mL | 8.15 ± 0.507 µM | 3.281 ± 0.022 µM | 3.28 µM | 2.5 | 4.98 ± 0.095 µM | SI (selectivity index) MCF7 [13]: 1.6; IC50 [14]: 6.47 ± 0.385 µM; SI (selectivity index) A549 [14]: 1.3; TNF-α pg/mL (± SEM) HCT116 [15]: 26.48 ± 1.5 pg/mL; %CT (± SEM), percentage cytotoxicity [16]: 53.1% and 53.1 ± 2.2%
4 | COc1cccc2c1C(=O)c1c(O)c3c(c(O)c1C2=O)C[C@@](O)(C(=O)CO)C[C@@H]3O[C@H]1C[C@H](N)[C@H](O)[C@H](C)O1 [Doxorubicin] |  |  |  |  |  |  |  |  |  |  |  |  |  |  |  |  |  |  |  |  | IC50 [17]: 5.93 µM
5 | CCOP(=O)(OCC)N1C/C(=C\c2cccs2)C(=O)C2(C1)C(c1cccs1)CN(C)C21C(=O)Nc2ccc(Cl)cc21 (centres unmarked) [Compound 17s, Diethyl (E)-[5-chloro-1′-methyl-2,4′′-dioxo-4′-(thiophen-2-yl)-5′′-(thiophen-2-ylmethylene)dispiro[indoline-3,2′-pyrrolidine-3′,3′′-piperidin]-1′′-yl]phosphonate] | 61.3 ± 4.3 μm | 53.8 ± 2.8% | 1.9% | 81.64 ± 3.7 pg/mL | 90.6 ± 2.8 pg/mL | 83.1% | 53.80 ± 0.9 pg/mL | 56.3 ± 2.3% | 81.6% | 47.60 ± 0.6 pg/mL | 0.163 | 6.13 ± 0.131 µM | 1.7 | 91.9% | 26.50 ± 0.5 pg/mL | 10.2 ± 0.545 µM | 5.42 ± 0.288 µM | 5.42 µM | 1.9 | 4.64 ± 0.068 µM | TNF-α % inhibition PaCa2 [5]: 19.0%; SI (selectivity index, COX-2/COX-1) [7]: 0.83; % Inhibition of the blood vessels in CAM test [2]: 86.7%; SI (selectivity index) MCF7 [13]: 2.2; IC50 [14]: 8.1 ± 0.091 µM; SI (selectivity index) A549 [14]: 1.3; TNF-α % inhibition HCT116 [15]: 9.6%; TNF-α pg/mL (± SEM) HCT116 [15]: 86.57 ± 2.0 pg/mL; %CT (± SEM), percentage cytotoxicity [16]: 77.9% and 77.9 ± 1.2%
